Experimental findings from patent US20230285397A1, “EGFR INHIBITOR” (TAIHO PHARMACEUTICAL CO., LTD., priority 2020, published 2023) are described below.

The test system of series [1] is H1975-EGFRinsSVD cell line. Description: Antitumor effect confirmation test (in vivo) on subcutaneous transplantation models. Further details: species or system nude mouse (BALB/cAJcl-nu/nu). Conditions: Examples 2, 11 and 12 orally at 25, 25 and 50 mg/kg/day, Days 1-14; Dunnett test P<0.001. How it is done:
When the tumor volumes of nude mice having tumor engraftment became on the order of 100 to 200 mm^3, the mice were assigned to groups each involving 6 animals by random stratification such that the average tumor volume was equal among the groups.
The test compound used was the compounds of Examples 2, 11, and 12, and a 0.5% HPMC aqueous solution was used as a control. The compounds of Examples 2, 11 and 12 were orally administered at doses of 25 mg/kg/day, 25 mg/kg/day and 50 mg/kg/day, respectively.
Each test compound or the control was orally administered every day for 14 days (Days 1-14) from the day following the grouping.
To compare the transition of tumor growth over time by the administration of each test compound, a tumor volume (which is also referred to as “TV” below) was measured at a frequency of twice a week over time. […] A body weight change percentage is also referred to as “BWC” below.
BWCn(%)=((body weight on n^th day)−(body weight on grouping day)]/[(body weight on grouping day)×100

A further series concerns the target T1, EGFR [D770_N771insNPG] (Homo sapiens, UniProt P00533, INS772GNP).
T1 construct: fused on or other part: Probably an N-terminal GST tag (Carna product)
As to the kind of experiment: Phosphorylation activity inhibitory effect (in vitro), kinase assay at Carna Biosciences. It is filed as biochemical. To be noted: ATP near Km. Here is the method:
The measurement of the in vitro inhibitory activity of a compound against wild-type and mutant EGFR was outsourced to Carna Biosciences, Inc. (Kinase Profiling Book, https://www.carnabio.com/japanese/product/search.cgi?mode=profiling).
Specifically, first, the compound of the present invention was diluted stepwise with dimethyl sulfoxide (DMSO). […] To the reaction solution, Termination Buffer was added, so as to terminate the kinase reaction. Finally, using LabChip™ EZ Reader II (PerkinElmer), an unphosphorylated substrate peptide (S) and a phosphorylated peptide (P) were separated and detected according to microchannel capillary electrophoresis.

The nature of series [2]: Evaluation of brain penetration properties. It counts as in vivo. Conditions: BALB/cA mice, oral, 50 mg/kg/day, 0.5 hours. Here is the method:
The compound of the present invention was suspended or dissolved in 0.5% HPMC aqueous solution and 0.1 N hydrochloric acid, and the obtained suspension or solution was orally administered to BALB/cA mice (CLEA Japan, Inc.) at a dose of 50 mg/kg/day. At 0.5 hours after completion of the oral administration, blood was collected from the facial vein, and whole brain was then excised, so as to obtain plasma and brain samples. Water was added to the obtained brain sample in 3 times the volume of the brain sample, and the resultant was then homogenized using an ultrasonic homogenizer, so as to obtain a brain homogenate. The concentration of the compound in the obtained plasma and brain homogenate was measured by LC-MS/MS, and the brain penetration properties of the present compound were evaluated from the brain/plasma concentration of the compound.

Series [3] is described as follows: Evaluation of oral absorbability. Conditions: BALB/cA mice, 50 mg/kg/day. It is filed as in vivo. How it is done: The compound of the present invention was suspended or dissolved in 0.5% HPMC aqueous solution and 0.1 N hydrochloric acid, and the obtained suspension or solution was orally administered to BALB/cA mice (CLEA Japan, Inc.) at a dose of 50 mg/kg/day. At 0.5, 1, 2, 4 and 6 hours after completion of the oral administration, blood was collected from the facial vein over time, so as to obtain plasma. The concentration of the compound in the obtained plasma was measured by LC-MS/MS, and the oral absorbability of the present compound was evaluated.

T1 sequence (P00533 with tags, fused parts or gaps INS772GNP): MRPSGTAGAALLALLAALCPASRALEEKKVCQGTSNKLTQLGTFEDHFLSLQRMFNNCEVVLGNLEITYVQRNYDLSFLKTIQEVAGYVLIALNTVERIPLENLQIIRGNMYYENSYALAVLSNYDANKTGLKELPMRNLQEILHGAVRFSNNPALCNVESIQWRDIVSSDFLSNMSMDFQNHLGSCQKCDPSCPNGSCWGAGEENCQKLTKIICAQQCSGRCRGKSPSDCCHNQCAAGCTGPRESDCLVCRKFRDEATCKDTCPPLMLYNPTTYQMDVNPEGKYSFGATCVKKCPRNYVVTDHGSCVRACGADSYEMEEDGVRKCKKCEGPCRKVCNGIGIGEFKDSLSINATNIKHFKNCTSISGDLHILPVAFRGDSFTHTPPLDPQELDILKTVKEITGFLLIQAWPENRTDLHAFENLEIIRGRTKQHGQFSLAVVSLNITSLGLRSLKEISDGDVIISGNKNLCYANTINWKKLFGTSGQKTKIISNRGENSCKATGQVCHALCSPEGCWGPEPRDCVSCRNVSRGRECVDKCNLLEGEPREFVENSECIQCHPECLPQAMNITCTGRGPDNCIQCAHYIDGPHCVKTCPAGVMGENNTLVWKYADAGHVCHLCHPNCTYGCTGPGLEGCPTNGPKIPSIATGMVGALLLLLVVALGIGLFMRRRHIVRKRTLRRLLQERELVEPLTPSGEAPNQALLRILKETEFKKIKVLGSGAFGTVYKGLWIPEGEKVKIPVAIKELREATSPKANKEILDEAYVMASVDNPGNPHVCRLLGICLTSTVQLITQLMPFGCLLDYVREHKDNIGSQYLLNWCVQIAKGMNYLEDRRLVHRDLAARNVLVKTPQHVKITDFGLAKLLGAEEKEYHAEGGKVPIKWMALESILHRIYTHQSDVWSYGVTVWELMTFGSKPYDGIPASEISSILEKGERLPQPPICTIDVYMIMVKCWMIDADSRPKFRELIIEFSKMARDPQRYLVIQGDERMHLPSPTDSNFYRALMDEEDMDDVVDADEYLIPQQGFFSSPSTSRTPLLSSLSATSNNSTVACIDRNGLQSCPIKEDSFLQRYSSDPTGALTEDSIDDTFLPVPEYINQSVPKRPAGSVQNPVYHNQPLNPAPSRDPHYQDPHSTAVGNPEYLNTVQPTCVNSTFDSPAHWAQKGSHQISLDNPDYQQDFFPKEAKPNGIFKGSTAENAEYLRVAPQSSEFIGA

In the case of `C=CC(=O)N1C[C@H](n2c(C#CC3CC3)c(C(=O)N[C@H](C)c3ccccc3)c3c(N)ncnc32)C[C@@H]1C` [Example 11, 7-((3R,5S)-1-acryloyl-5-methylpyrrolidin-3-yl)-4-amino-6-(cyclopropylethynyl)-N—((R)-1-phenylethyl)-7H-pyrrolo[2,3-d]pyrimidine-5-carboxamide], the “Antitumor effect: tumor volume (TV) on Day 15 compared with the control group” value in series [1] was “excellent antitumor effects”. Further, the concentration for half-maximal inhibition (IC50) at EGFR [D770_N771insNPG] came to 550 pM. Regarding `C=CC(=O)N1C[C@H](n2c(C#CC)c(C(=O)N[C@H](C)c3ccccc3)c3c(N)ncnc32)C[C@@H]1C` [Example 2, 7-((3R,5S)-1-acryloyl-5-methylpyrrolidin-3-yl)-4-amino-N—((R)-1-phenylethyl)-6-(prop-1-yn-1-yl)-7H-pyrrolo[2,3-d]pyrimidine-5-carboxamide], the “Antitumor effect: tumor volume (TV) on Day 15 compared with the control group” value in series [1] is “excellent antitumor effects”. Turning to `C=CC(=O)N1C[C@H](n2nc(C(=O)Nc3ccc(CC(=O)N(C)C)c(C)c3C)c3c(N)ncnc32)C[C@@H]1C` [Comparative Example 2, 1-((3R,5S)-1-acryloyl-5-methylpyrrolidin-3-yl)-4-amino-N-(4-(2-(dimethylamino)-2-oxoethyl)-2,3-dimethylphenyl)-1H-pyrazolo[3,4-d]pyrimidine-3-carboxamide], in series [2], the “Attenuation of brain concentration relative to the compound of the present invention” value is recorded as “more than 80 times”. For the same compound, the “Attenuation of oral absorbability relative to the compound of the present invention” value in series [3] is reported as “more than 4 times”.

For the compound `C=CC(=O)N1C[C@H](n2c(C#CC(C)(C)C)c(C(=O)N[C@H](C)c3ccccc3)c3c(N)ncnc32)C[C@@H]1C` [Example 12, 7-((3R,5S)-1-acryloyl-5-methylpyrrolidin-3-yl)-4-amino-6-(3,3-dimethylbut-1-yn-1-yl)-N—((R)-1-phenylethyl)-7H-pyrrolo[2,3-d]pyrimidine-5-carboxamide], the “Antitumor effect: tumor volume (TV) on Day 15 compared with the control group” value in series [1] is given as “excellent antitumor effects”.

For orientation: IC50 means the point on the concentration scale where inhibition reaches its midpoint. Read a high IC50 as weaker potency in that assay.
